Holding throughout (format): functional, cell-based
Data set [1] addresses T1, Organic anion transporter 3 (Rattus norvegicus, UniProt Q9R1U7).
T1 sequence (Q9R1U7 whole entry): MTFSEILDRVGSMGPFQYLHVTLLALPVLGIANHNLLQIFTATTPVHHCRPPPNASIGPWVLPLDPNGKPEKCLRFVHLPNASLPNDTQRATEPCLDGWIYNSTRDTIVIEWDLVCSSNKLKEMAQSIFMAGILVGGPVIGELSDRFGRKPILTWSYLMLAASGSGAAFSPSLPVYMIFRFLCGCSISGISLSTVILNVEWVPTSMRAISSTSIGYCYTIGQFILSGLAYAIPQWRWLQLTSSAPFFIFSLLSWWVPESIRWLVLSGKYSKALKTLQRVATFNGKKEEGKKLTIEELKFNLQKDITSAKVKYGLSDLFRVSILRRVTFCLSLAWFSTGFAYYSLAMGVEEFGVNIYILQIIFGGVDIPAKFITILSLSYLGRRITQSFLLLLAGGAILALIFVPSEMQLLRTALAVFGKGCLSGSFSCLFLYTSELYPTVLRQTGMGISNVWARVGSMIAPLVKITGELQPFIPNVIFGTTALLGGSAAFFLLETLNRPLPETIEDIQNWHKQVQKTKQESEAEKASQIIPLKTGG
Description: TP_TRANSPORTER: inhibition of Estrone sulfate uptake in OAT3-expressing S2 cells.

The target in data set [2] is T2, Solute carrier family 22 member 6 (Rattus norvegicus, UniProt O35956).
T2 sequence (O35956 whole entry): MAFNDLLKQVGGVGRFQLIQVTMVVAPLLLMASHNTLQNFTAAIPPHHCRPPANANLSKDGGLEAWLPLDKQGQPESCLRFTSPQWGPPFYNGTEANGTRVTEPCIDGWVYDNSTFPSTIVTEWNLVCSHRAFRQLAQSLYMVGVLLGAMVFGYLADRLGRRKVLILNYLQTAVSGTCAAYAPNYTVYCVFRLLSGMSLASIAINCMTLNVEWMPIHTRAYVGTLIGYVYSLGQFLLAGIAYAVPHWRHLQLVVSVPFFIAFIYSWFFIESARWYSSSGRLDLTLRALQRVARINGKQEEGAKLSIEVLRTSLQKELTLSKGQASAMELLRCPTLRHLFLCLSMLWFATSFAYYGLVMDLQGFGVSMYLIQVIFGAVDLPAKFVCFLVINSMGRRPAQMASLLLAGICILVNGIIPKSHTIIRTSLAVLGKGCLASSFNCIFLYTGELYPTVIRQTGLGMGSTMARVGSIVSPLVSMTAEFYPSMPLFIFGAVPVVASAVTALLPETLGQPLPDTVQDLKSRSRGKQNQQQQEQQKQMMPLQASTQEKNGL
Description: TP_TRANSPORTER: inhibition of PAH uptake in OAT1-expressing S2 cells.

In data set [3] the target is T1, Organic anion transporter 3. Briefly: TP_TRANSPORTER: uptake in OAT3-expressing S2 cells. To be noted: mouse.

As a reminder, the IC50 is the concentration that gives 50% inhibition. Low readings indicate greater potency in that assay, high ones weaker potency in that assay. Turning to `CC1=C(C(=O)O)N2C(=O)[C@@H](NC(=O)[C@H](N)c3ccc(O)cc3)[C@H]2SC1` [CEFADROXIL], 1780 µM corresponded to half-maximal inhibition in data set [1] (IC50).
`CC1=C(C(=O)O)N2C(=O)[C@@H](NC(=O)[C@H](N)c3ccccc3)[C@H]2SC1` [CEPHALEXIN ANHYDROUS]: the concentration for half-maximal inhibition (IC50) was > 2000 µM in data set [2] and 630 µM in data set [1].
The Ki is the equilibrium dissociation constant of an inhibitor or competing ligand from its target. A higher Ki goes with lower affinity. `CCN1CCN(C(=O)N[C@@H](C(=O)N[C@@H]2C(=O)N3C(C(=O)O)=C(CSc4nnnn4C)CS[C@H]23)c2ccc(O)cc2)C(=O)C1=O` [CEFOPERAZONE] came in with a Ki in data set [1] of 670 µM.
On to `CC(=O)OCC1=C(C(=O)O)N2C(=O)[C@@H](NC(=O)Cc3cccs3)[C@H]2SC1` [CEPHALOTHIN], for which affinity in data set [1] was put at a Ki of 48 µM.
As for `CO/N=C(\C(=O)N[C@@H]1C(=O)N2C(C(=O)O)=C(COC(C)=O)CS[C@H]12)c1csc(N)n1` [CEFOTAXIME], the midpoint of inhibition in data set [1], the IC50, lay at 800 µM.
`Cc1nnc(SCC2=C(C(=O)O)N3C(=O)[C@@H](NC(=O)Cn4cnnn4)[C@H]3SC2)s1` [CEFAZOLIN] registered a Ki in data set [1] of 780 µM.
Regarding `CO/N=C(\C(=O)N[C@@H]1C(=O)N2C(C(=O)O)=C(CSc3nc(=O)c(=O)[nH]n3C)CS[C@H]12)c1csc(N)n1` [CEFTRIAXONE], in data set [1], the IC50 was > 2000 µM.
On the same count and under the same terms, the figure for `Cn1nnnc1SCC1=C(C(=O)O)N2C(=O)[C@@H](NC(=O)[C@H](O)c3ccccc3)[C@H]2SC1` [CEFAMANDOLE] is 90 µM.
Turning to `O=C(Cc1cccs1)N[C@@H]1C(=O)N2C(C(=O)[O-])=C(C[n+]3ccccc3)CS[C@H]12` [CEPHALORIDINE], the Activity result in data set [3] is “substrate [+]”. In addition, the Ki in data set [1] is 1140 µM.

The values are drawn from ChEMBL document CHEMBL2074497, “Involvement of rat organic anion transporter 3 (rOAT3) in cephaloridine-induced nephrotoxicity: in comparison with rOAT1” (Life Sci, 2002).
